Measured values from US20080146555A1, “Uses of Kinase Inhibitors and Compositions Thereof” (GPC Biotech, Inc, priority 2004, published 2008).

tested on: HCT-116 cells; test: Calcein AM viability assay, HCT-116; format: cell-based; settings: Homo sapiens, HCT-116, non-protein adjusted, Table 4; read-out: HCT-116 viability IC50
Procedure: The potency of the subject kinase inhibitors, as measured by loss of cellular viability, was determined with the Calcein AM assay (Molecular Probes). Calcein AM is a substrate of intracellular esterases, which is cleaved only in viable cells to generate a fluorescent product that can be quantified with a fluorescent plate reader. The fluorescent signal is proportional to the number of viable cells, and thus loss of signal in response to the exposure of cells to the subject kinase inhibitors correlates with a loss of viability. This assay not only distinguishes cell cycle arrest, in which cells may still by viable, from loss of viability, and is thus well suited for the evaluation of the subject kinase inhibitors. A compound that is a potent cytotoxic agent may cause significant loss of cell viability in such an assay.
Cellular IC50's were determined in the human colorectal carcinoma cell line, HCT-116, and the normal human fibroblast, IMR90. Protein adjusted IC50's were also determined in HCT-116. Results of such viability assays are presented in Table 2 (HCT-116 (viability/protein adjusted) and IMR-90). IC50's (μM, non-protein adjusted) for the viability assay against HCT-116 cells are shown for further compounds of the invention in Table 4.
HCT-116 or IMR90 cells were recovered from sub-confluent plates by trypsinization and 1,000 or 4,000 cells, respectively, were plated in 24-well dishes and incubated overnight at 37° C., 5% CO2. HCT-116 cells were cultured in RPMI-1640, 10% FCS, and IMR90 cells were cultured in Minimum Essential Medium-alpha, 10% FCS. After overnight incubation to allow adherence, the media was aspirated from each well and replaced with media containing a test compound at a concentration from 0 to 250 nM, spanning a total of 7 doses. The plates were returned to the incubator and cultured for an additional 72 hours (3 days). […] After 72-hours incubation with the test compound, the cells were washed twice with 1×PBS, taking special care to remove all residual buffer.
A 5 μM Calcein AM solution was prepared by dissolving a 50 μg aliquot of Calcein (Molecular Probes catalog #C3100) in 50 μl DMSO. After the Calcein had completely dissolved (10 minutes at room temperature), it was diluted into 10 ml PBS. Calcein/PBS (0.5 ml) was added to each well. The plates were incubated for 75 minutes at 37° C. (protected from light) and the fluorescent signal was read on a fluorescent plate reader (excitation 485/20 and emission 530/25).

Row | IC50 [µM] | Structure (SMILES)
1 | < 0.25 | O=C(Nc1cccc2c1C(=O)c1c-2n[nH]c1-c1ccc(OCC(=O)N2CCNCC2)cc1)NN1CCOCC1 [Compound C5]
2 | < 0.01 | Cc1cc(-c2[nH]nc3c2C(=O)c2c(NC(=O)NN4CCOCC4)cccc2-3)ccc1OCCN1CCCC1 [Compound A25]
3 | < 0.1 | COc1cc(-c2[nH]nc3c2C(=O)c2c(NC(=O)NN4CCOCC4)cccc2-3)ccc1OCCN1CCCC1 [Compound A31]
4 | < 0.1 | Cc1cc(OCCn2cccn2)ccc1-c1[nH]nc2c1C(=O)c1c(NC(=O)NN3CCN(C)CC3)cccc1-2 [Compound A11]
5 | < 0.01 | CN1CCN(CCOc2ccc(-c3n[nH]c4c3C(=O)c3c(NC(=O)NN5CCN(C)CC5)cccc3-4)c(F)c2)CC1 [Compound A13]
6 | < 0.1 | CN1CCN(NC(=O)Nc2cccc3c2C(=O)c2c-3n[nH]c2-c2ccc(OCC(=O)N3CCCC3)cc2)CC1 [Compound A44]
7 | < 0.1 | Cc1cc(OCCN2CCCCC2)ccc1-c1[nH]nc2c1C(=O)c1c(NC(=O)NN3CCN(C)CC3)cccc1-2 [Compound A8]
8 | < 0.1 | O=C(Nc1cccc2c1C(=O)c1c(-c3ccc(CN4CC[C@@H](O)C4)cc3)n[nH]c1-2)NN1CCOCC1 [Compound B8]
9 | < 0.1 | O=C(Nc1cccc2c1C(=O)c1c-2n[nH]c1-c1ccc(O)c(CN2CCOCC2)c1)NN1CCOCC1 [Compound A10]
10 | < 0.1 | O=C(Nc1cccc2c1C(=O)c1c-2n[nH]c1-c1ccc(S(=O)(=O)N2CCNCC2)cc1)NN1CCOCC1 [Compound A56]
11 | < 0.1 | CC(C)C(N)C(=O)OCCN1CCN(NC(=O)Nc2cccc3c2C(=O)c2c-3n[nH]c2-c2ccc(OCCN3CCCC3)cc2)CC1 (stereo not drawn) [Compound A33]
12 | < 0.1 | O=C(Nc1cccc2c1C(=O)c1c(-c3ccc(OCC(=O)N4CCN(c5ccccn5)CC4)cc3)n[nH]c1-2)NN1CCOCC1 [Compound A81]
13 | < 0.1 | Cc1noc(COc2ccc(-c3[nH]nc4c3C(=O)c3c(NC(=O)NN5CCOCC5)cccc3-4)cc2)n1 [Compound A35]
14 | < 0.01 | O=C(Nc1cccc2c1C(=O)c1c-2n[nH]c1-c1ccc(CN2CCN(c3ccncc3)CC2)cc1)NN1CCOCC1 [Compound B14]
15 | < 1 | O=C(Nc1cccc2c1C(=O)c1c(-c3ccc(CNC(CO)CO)cc3)n[nH]c1-2)NN1CCOCC1 [Compound B1]
16 | < 0.1 | O=C(Nc1cccc2c1C(=O)c1c(-c3ccc(OCC(=O)N4CCN(c5ccccc5)CC4)cc3)n[nH]c1-2)NN1CCOCC1 [Compound A80]
17 | < 0.1 | O=C(Nc1cccc2c1C(=O)c1c(-c3ccc(CN4CCN(c5ccccn5)CC4)cc3)n[nH]c1-2)NN1CCOCC1 [Compound A82]
18 | < 0.1 | Cc1cc(OCCN2CCN(C(C)C)CC2)ccc1-c1[nH]nc2c1C(=O)c1c(NC(=O)NN3CCN(C)CC3)cccc1-2 [Compound A19]
19 | < 0.1 | Cc1cc(-c2[nH]nc3c2C(=O)c2c(NC(=O)NN4CCN(C)CC4)cccc2-3)ccc1OCCN1CCN(C(C)C)CC1 [Compound A18]
20 | < 0.1 | CN1CCN(NC(=O)Nc2cccc3c2C(=O)c2c(-c4ccc(OCCN5CCCC5)cc4F)n[nH]c2-3)CC1 [Compound A12]
21 | < 0.1 | Cc1cc(OCCN2CCCN(C)CC2)ccc1-c1[nH]nc2c1C(=O)c1c(NC(=O)NN3CCN(C)CC3)cccc1-2 [Compound A9]
22 | < 0.01 | O=C(Nc1cccc2c1C(=O)c1c(-c3ccc(CNCc4ccccn4)cc3)n[nH]c1-2)NN1CCOCC1 [Compound B13]
23 | < 1 | O=C(Nc1cccc2c1C(=O)c1c(-c3ccc(CNCC(O)CO)cc3)n[nH]c1-2)NN1CCOCC1 (stereo not drawn) [Compound B11]
24 | < 0.1 | Cc1cc(OCCN2CCCC2)ccc1-c1[nH]nc2c1C(=O)c1c(NC(=O)NN3CCOCC3)cccc1-2 [Compound A29]
25 | < 0.1 | Cc1cc(OCCN2CCOCC2)ccc1-c1[nH]nc2c1C(=O)c1c(NC(=O)NN3CCN(C)CC3)cccc1-2 [Compound A7]
26 | < 0.1 | O=C(Nc1cccc2c1C(=O)c1c(-c3ccc(CN(CCO)CCO)cc3)n[nH]c1-2)NN1CCOCC1 [Compound B2]
27 | < 0.1 | O=C(Nc1cccc2c1C(=O)c1c(-c3ccc(CN4CCC[C@H]4CO)cc3)n[nH]c1-2)NN1CCOCC1 [Compound B6]
28 | < 0.1 | CC(C)N1CCN(CCOc2ccc(-c3n[nH]c4c3C(=O)c3c(NC(=O)NN5CCOCC5)cccc3-4)c(F)c2)CC1 [Compound A16]

Row | IC50 [µM] | Structure (SMILES)
29 | < 0.1 | O=C(Nc1cccc2c1C(=O)c1c(-c3ccc(CN4CCC(O)CC4)cc3)n[nH]c1-2)NN1CCOCC1 [Compound B5]
30 | < 0.1 | CC(C)N1CCN(CCOc2ccc(-c3n[nH]c4c3C(=O)c3c(NC(=O)NN5CCOCC5)cccc3-4)cc2F)CC1 [Compound A22]
31 | > 0.25 | O=C(Nc1cccc2c1C(=O)c1c(-c3ccc(OCc4nnn[nH]4)cc3)n[nH]c1-2)NN1CCOCC1 [Compound A74]
32 | < 0.1 | O=C(Nc1cccc2c1C(=O)c1c-2n[nH]c1-c1ccc(OCCN2CCOCC2)cc1)NN1CCOCC1 [Compound A3]
33 | < 0.01 | CCOC(=O)CN1CCN(NC(=O)Nc2cccc3c2C(=O)c2c-3n[nH]c2-c2ccc(OCCN3CCCC3)cc2)CC1 [Compound A26]
34 | < 0.1 | O=C(Nc1cccc2c1C(=O)c1c(-c3ccc(OCCN4CCOCC4)cc3Cl)n[nH]c1-2)NN1CCOCC1 [Compound A28]
35 | < 0.1 | O=C(Nc1cccc2c1C(=O)c1c(-c3ccc(OCC(=O)N4CCN(Cc5ccccc5)CC4)cc3)n[nH]c1-2)NN1CCOCC1 [Compound A79]
36 | < 0.1 | O=C(Nc1cccc2c1C(=O)c1c-2n[nH]c1-c1ccc(OCC(=O)N2CCCC2)cc1)NN1CCOCC1 [Compound A46]
37 | < 0.1 | CN1CCN(Cc2ccc(-c3n[nH]c4c3C(=O)c3c(NC(=O)NN5CCOCC5)cccc3-4)cc2)CC1 [Compound A49]
38 | < 0.1 | O=C(Nc1cccc2c1C(=O)c1c(-c3ccc(CNCCOCCO)cc3)n[nH]c1-2)NN1CCOCC1 [Compound B4]
39 | < 0.1 | CC(C)N1CCN(CCCOc2ccc(-c3[nH]nc4c3C(=O)c3c(NC(=O)NN5CCOCC5)cccc3-4)cc2)CC1 [Compound A20]
40 | < 0.1 | CN1CCN(NC(=O)Nc2cccc3c2C(=O)c2c(-c4ccc(OCCN5CCCC5)c(F)c4)n[nH]c2-3)CC1 [Compound A14]
41 | < 0.1 | CCOC(=O)COc1ccc(-c2[nH]nc3c2C(=O)c2c(NC(=O)NN4CCOCC4)cccc2-3)cc1 [Compound A65]
42 | < 0.1 | CC(C)N1CCN(S(=O)(=O)c2ccc(-c3[nH]nc4c3C(=O)c3c(NC(=O)NN5CCOCC5)cccc3-4)cc2)CC1 [Compound A57]
43 | < 0.1 | CN(C)C(=O)CN1CCN(NC(=O)Nc2cccc3c2C(=O)c2c-3n[nH]c2-c2ccc(OCCN3CCCC3)cc2)CC1 [Compound A41]
44 | < 0.01 | CC(C)N1CCN(Cc2ccc(-c3[nH]nc4c3C(=O)c3c(NC(=O)NN5CCOCC5)cccc3-4)cc2)CC1 [Compound B17]
45 | < 0.1 | CN1CCN(NC(=O)Nc2cccc3c2C(=O)c2c-3n[nH]c2-c2ccc(OCCn3cccn3)cc2)CC1 [Compound A17]
46 | < 0.1 | CC(C)OC(=O)CN1CCN(NC(=O)Nc2cccc3c2C(=O)c2c-3n[nH]c2-c2ccc(OCCN3CCCC3)cc2)CC1 [Compound A40]
47 | < 0.1 | O=C(Nc1cccc2c1C(=O)c1c(-c3ccc(OCCN4CCOCC4)c(F)c3)n[nH]c1-2)NN1CCOCC1 [Compound A27]
48 | < 0.1 | CN(C)C(=O)COc1ccc(-c2[nH]nc3c2C(=O)c2c(NC(=O)NN4CCOCC4)cccc2-3)cc1 [Compound A34]
49 | < 0.01 | O=C(Nc1cccc2c1C(=O)c1c-2n[nH]c1-c1ccc(OCC(=O)N2CCOCC2)cc1)NN1CCOCC1 [Compound A36]
50 | < 0.01 | Cc1noc(COc2ccc(-c3[nH]nc4c3C(=O)c3c(NC(=O)NN5CCN(C)CC5)cccc3-4)cc2)n1 [Compound A45]
51 | < 0.1 | O=C(Nc1cccc2c1C(=O)c1c(-c3ccc(CNCCO)cc3)n[nH]c1-2)NN1CCOCC1 [Compound B10]
52 | < 0.01 | Cc1cc(-c2[nH]nc3c2C(=O)c2c(NC(=O)NN4CCOCC4)cccc2-3)ccc1OCCN1CCN(C(C)C)CC1 [Compound A24]
53 | < 0.1 | COCCN1CCN(C(=O)COc2ccc(-c3[nH]nc4c3C(=O)c3c(NC(=O)NN5CCOCC5)cccc3-4)cc2)CC1 [Compound C1]
54 | < 0.1 | CC(C)N1CCN(NC(=O)Nc2cccc3c2C(=O)c2c-3n[nH]c2-c2ccc(OCCN3CCCC3)cc2)CC1 [Compound A23]
55 | < 1 | O=C(Nc1cccc2c1C(=O)c1c(-c3ccc(CN4CCN(c5cccc(C(F)(F)F)c5)CC4)cc3)n[nH]c1-2)NN1CCOCC1 [Compound B7]

Row | Structure (SMILES) | IC50 [µM]
56 | CCN1CCN(C(=O)COc2ccc(-c3n[nH]c4c3C(=O)c3c(NC(=O)NN5CCOCC5)cccc3-4)cc2)CC1 [Compound A78] | < 0.01
57 | CN1CCN(C(=O)COc2ccc(-c3n[nH]c4c3C(=O)c3c(NC(=O)NN5CCOCC5)cccc3-4)cc2)CC1 [Compound A77] | < 0.1
